The record followed here is ChEMBL document CHEMBL3526086, “Identification of the oxidative and conjugative enzymes involved in the biotransformation of brivanib” (Drug Metab Dispos, 2012).

Data set [1] relates to Liver microsome. Put plainly: Drug metabolism in human liver microsomes assessed as (R)-4-fluoro-5-(6-(2-hydroxypropoxy)-5-methylpyrrolo[1,2-f][1,2,4]triazin-4-yloxy)-1H-indole-2-carboxylic acid formation at 2 uM for 60 mins by LC/MS analysis. Type of data set: ADME. (Liver microsomes are a subcellular fraction often used to study metabolism.)
The subject of data set [2] is Liver microsome. Put plainly: Drug metabolism in human liver microsomes assessed as (R)-4-fluoro-5-(6-(2-hydroxypropoxy)-5-methylpyrrolo[1,2-f][1,2,4]triazin-4-yloxy)-1H-indole-2-carboxylic acid formation at 2 uM for 60 mins by LC/MS analysis in presence of NADPH. The class given is ADME.
Data set [3] deals with Liver cytosol. Put plainly: Drug metabolism in human liver cytosol assessed as (R)-4-fluoro-5-(6-(2-hydroxypropoxy)-5-methylpyrrolo[1,2-f][1,2,4]triazin-4-yloxy)-1H-indole-2-carboxylic acid formation at 2 uM for 60 mins by LC/MS analysis in presence of NADPH. The class given is ADME.
The test system of data set [4] is Liver cytosol. Put plainly: Drug metabolism in human liver cytosol assessed as (R)-4-fluoro-5-(6-(2-hydroxypropoxy)-5-methylpyrrolo[1,2-f][1,2,4]triazin-4-yloxy)-1H-indole-2-carboxylic acid formation at 2 uM for 60 mins by LC/MS analysis. Type of data set: ADME, tissue-based.
In data set [5] the test system is Liver cytosol. The experiment in a line: Drug metabolism in human liver cytosol assessed as (R)-1-(4-(4-fluoro-2-(hydroxymethyl)-1H-indol-5-yloxy)-5-methylpyrrolo[1,2-f][1,2,4]triazin-6-yloxy)propane-2-sulfonic acid formation at 2 uM for 60 mins by LC/MS analysis in presence of PAPS. The class given is ADME.
Data set [6] relates to Liver cytosol. The experiment in a line: Drug metabolism in human liver cytosol assessed as (R)-4-fluoro-5-(5-methyl-6-(2-sulfopropoxy)pyrrolo[1,2-f][1,2,4]triazin-4-yloxy)-1H-indole-2-carboxylic acid formation at 2 uM for 60 mins by LC/MS analysis in presence of PAPS. Type of data set: ADME.
For data set [7], the system named is Liver cytosol. Put plainly: Drug metabolism in human liver cytosol assessed as sulfate conjugate formation at 2 uM for 60 mins in absence of PAPS by LC/MS analysis. To be noted: 1 h. The class given is ADME, tissue-based.

Turning to `Cc1c(OC[C@@H](C)O)cn2n[14cH]nc(Oc3ccc4[nH]c(CO)cc4c3F)c12`, the Drug metabolism entry is “metabolite_not_detected” in the data set on Liver microsome [1]; “metabolite_detected” with Liver microsome [2]; “metabolite_detected” with Liver cytosol [3]; “metabolite_detected” in the data set on Liver cytosol [4]; “metabolite_detected” in the data set on Liver cytosol [5]; “metabolite_detected” in the data set with Liver cytosol [6]. For the same molecule, in the data set on Liver cytosol [7], the Drug metabolism entry was “metabolite_not_detected”.
